Several values for one entry are separate records, joined by “and”; a condition that tells them apart may be missing. Identical values can stand only once.
Tests used:
H1975 cells = assay: CCK-8 antiproliferation assay, H1975; conditions: for Inhibitory efficacy: H1975 cells; for IC50: NCI-H1975, 48 h, read-out: IC50 (μM) H1975, CCK-8, 48 h, average ± SD of three independent experiments
wild-type EGFR = wild-type EGFR (Homo sapiens, UniProt P00533); assay: EGFR kinase assay (ELISA); conditions: for IC50: IC50 (μM) EGFR, ELISA, 3 μmol/L ATP; for A450: raw ELISA absorbance
Chain of wild-type EGFR (P00533 25-1210): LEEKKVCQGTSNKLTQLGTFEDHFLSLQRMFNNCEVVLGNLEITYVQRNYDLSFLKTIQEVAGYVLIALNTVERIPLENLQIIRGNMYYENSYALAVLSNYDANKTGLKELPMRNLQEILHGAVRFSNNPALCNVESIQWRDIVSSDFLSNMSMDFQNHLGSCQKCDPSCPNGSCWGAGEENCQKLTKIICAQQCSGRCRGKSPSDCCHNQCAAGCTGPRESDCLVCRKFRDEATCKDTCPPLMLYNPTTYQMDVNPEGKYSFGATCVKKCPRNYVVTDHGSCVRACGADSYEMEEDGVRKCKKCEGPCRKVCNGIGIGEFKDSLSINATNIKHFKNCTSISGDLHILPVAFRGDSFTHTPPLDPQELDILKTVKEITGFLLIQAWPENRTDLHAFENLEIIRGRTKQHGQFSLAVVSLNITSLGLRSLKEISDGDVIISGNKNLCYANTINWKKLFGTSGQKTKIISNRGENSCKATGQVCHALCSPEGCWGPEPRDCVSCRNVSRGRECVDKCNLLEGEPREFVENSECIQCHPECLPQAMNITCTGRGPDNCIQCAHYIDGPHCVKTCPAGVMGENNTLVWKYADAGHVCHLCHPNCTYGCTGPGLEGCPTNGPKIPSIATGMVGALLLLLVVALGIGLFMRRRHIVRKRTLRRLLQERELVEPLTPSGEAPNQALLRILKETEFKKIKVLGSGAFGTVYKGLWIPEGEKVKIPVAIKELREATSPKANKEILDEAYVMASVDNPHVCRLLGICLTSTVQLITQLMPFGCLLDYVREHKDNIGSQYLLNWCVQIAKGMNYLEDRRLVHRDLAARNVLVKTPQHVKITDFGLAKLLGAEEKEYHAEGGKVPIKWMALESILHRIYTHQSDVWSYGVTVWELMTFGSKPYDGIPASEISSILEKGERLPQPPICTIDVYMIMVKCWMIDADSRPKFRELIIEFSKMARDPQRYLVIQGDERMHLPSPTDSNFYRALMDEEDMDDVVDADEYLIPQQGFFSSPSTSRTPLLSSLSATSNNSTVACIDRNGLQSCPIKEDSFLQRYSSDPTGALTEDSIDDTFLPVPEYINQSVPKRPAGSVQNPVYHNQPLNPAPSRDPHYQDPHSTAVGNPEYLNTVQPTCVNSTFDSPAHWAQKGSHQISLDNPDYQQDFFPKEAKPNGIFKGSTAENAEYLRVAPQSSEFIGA
Method: The kinase enzyme of EGFR was purchased from Carna Bioscience (Kobe, Japan). A total of 10 ng/ml anti phosphotyrosine (PY713) antibody (abcam, Cambridge Science Park, United Kingdom) was precoated in 96-well ELISA plates. […] Then, a total of 3 μmol/L ATP was added and the reaction was continued for 2 h. […] After incubation, the wells were washed with PBS and then incubated with horseradish peroxidase (HRP)-conjugated streptavidin. The wells were visualized using 3,3′,5,5′-tetramethylbenzidine (TMB), and chromogenic reaction was ended with 2 mol/L H2SO4, the absorbance was read with a multimode plate reader (PerkinElmer, United States) at 450 nm.

A549 cells = assay: CCK-8 antiproliferation assay, A549; conditions: for Inhibitory efficacy: A549 cells; for Inhibitory efficacy / inhibition at 1 µM / inhibition at 2 µM / inhibition at 4 µM / inhibition at 8 µM / inhibition at 16 µM: given as fraction, Repeat 1-3; for IC50 / inhibition at 1 µM / inhibition at 2 µM / inhibition at 4 µM / inhibition at 8 µM / inhibition at 16 µM: Homo sapiens; for IC50: A549, 48 h, read-out: IC50 (μM) A549, CCK-8, 48 h, average ± SD of three independent experiments; for inhibition at 1 µM / inhibition at 2 µM / inhibition at 4 µM / inhibition at 8 µM / inhibition at 16 µM: A549, read-out: Inhibitory efficacy, A549 cells
Method: The compounds were dissolved in DMSO to make a 20 μM stock solution and diluted to the concentration of working solutions with complete growth medium before administration.
Cells were seeded in 96-well plates: 3,000–5,000 cells/well in 100 ul. One day after seeding, the test compounds at concentration between 1.0 and 16.0 μ M or 0.1% DMSO (as control) were added to cells in triplicate. 48 h later, CCK-8 was added and incubated the plate for 1–4 h in the incubator. The absorbance at 450 nm were measured using a microplate reader (Bio-Tek).

H460 cells = assay: CCK-8 antiproliferation assay, H460; conditions: for Inhibitory efficacy: H460 cells; for IC50: NCI-H460, 48 h, read-out: IC50 (μM) H460, CCK-8, 48 h, average ± SD of three independent experiments
PC-9 cells = assay: CCK-8 antiproliferation assay, PC-9; conditions: for IC50: PC-9, 48 h, read-out: IC50 (μM) PC-9; for Inhibitory efficacy: single repeats (Repeat 1-3), given as fraction
[1] = 8uM, given as fraction, Repeat 1-3
[2] = 16uM, given as fraction, Repeat 1-3
[3] = Homo sapiens, NCI-H1975, read-out: Inhibitory efficacy, H1975 cells, 8uM, given as fraction, Repeat 1-3
[4] = Homo sapiens, NCI-H1975, read-out: Inhibitory efficacy, H1975 cells, 16uM, given as fraction, Repeat 1-3
[5] = concentration 0.03 nM, one value per replicate column, 3e-05 µM
[6] = concentration 0.3 nM, one value per replicate column, 0.0003 µM
[7] = concentration 3 nM, one value per replicate column
[8] = concentration 3 nM, one value per replicate column, 0.003 µM
[9] = concentration 30 nM, one value per replicate column
[10] = concentration 30 nM, one value per replicate column, 0.03 µM
[11] = concentration 300 nM, one value per replicate column
[12] = concentration 300 nM, one value per replicate column, 0.3 µM
[13] = concentration 3000 nM, one value per replicate column
[14] = concentration 3000 nM, one value per replicate column, 3 µM
[15] = concentration 30000 nM, one value per replicate column
[16] = concentration 30000 nM, one value per replicate column, 30 µM
[17] = 4uM, given as fraction, Repeat 1-3
[18] = Homo sapiens, NCI-H460, read-out: Inhibitory efficacy, H460 cells, 4uM, given as fraction, Repeat 1-3
[19] = Homo sapiens, NCI-H460, read-out: Inhibitory efficacy, H460 cells, 8uM, given as fraction, Repeat 1-3
[20] = Homo sapiens, NCI-H460, read-out: Inhibitory efficacy, H460 cells, 16uM, given as fraction, Repeat 1-3
[21] = 2uM, given as fraction, Repeat 1-3

## COCCOc1cc2ncnc(Nc3cccc(-c4cn(-c5ccccc5C(F)(F)F)nn4)c3)c2cc1OCCOC [e16, [6,7-Bis-(2-methoxy-ethoxy)-quinazolin-4-yl]-{3-[1-(2-trifluoromethyl-phenyl)-1H-[1,2,3]triazol-4-yl]-phenyl}-amine]
H1975 cells; [1]
  Inhibitory efficacy: 0.3646 and 0.348
H1975 cells; [2]
  Inhibitory efficacy: 0.506 and 0.5045
H1975 cells; Homo sapiens
  IC50: 15.3 ± 1.55 µM
H1975 cells; [3]
  inhibition at 8 µM: 44%
H1975 cells; [4]
  inhibition at 16 µM: 48%
other
  melting point: 113 to 116 °C
wild-type EGFR
  IC50: 32.5 µM
wild-type EGFR; [5]
  Inhibition: 19.0252 and 4.409
wild-type EGFR; [6]
  Inhibition: 9.134
wild-type EGFR; [7]
  inhibition at 0.003 µM: 19.8%
wild-type EGFR; [8]
  Inhibition: 15.5906
wild-type EGFR; [9]
  inhibition at 0.03 µM: 23.4%
wild-type EGFR; [10]
  Inhibition: 15.748
wild-type EGFR; [11]
  inhibition at 0.3 µM: 27%
wild-type EGFR; [12]
  Inhibition: 20.1575
wild-type EGFR; [13]
  inhibition at 3 µM: 29.6%
wild-type EGFR; [14]
  Inhibition: 27.7165
wild-type EGFR; [15]
  inhibition at 30 µM: 60.1%
wild-type EGFR; [16]
  Inhibition: 60
wild-type EGFR; concentration 0.0001 nM
  A450: 0.901 and 0.865
wild-type EGFR; concentration 0.03 nM
  A450: 0.78 and 0.837
wild-type EGFR; concentration 0.3 nM
  A450: 0.775 and 0.807
wild-type EGFR; concentration 3 nM
  A450: 0.775 and 0.766
wild-type EGFR; concentration 30 nM
  A450: 0.752 and 0.765
wild-type EGFR; concentration 300 nM
  A450: 0.729 and 0.737
wild-type EGFR; concentration 3000 nM
  A450: 0.713 and 0.689
wild-type EGFR; concentration 30000 nM
  A450: 0.519 and 0.484
A549 cells; 1uM
  Inhibitory efficacy: 0.2305 and 0.3107
  inhibition at 1 µM: 15.9%
A549 cells; 2uM
  Inhibitory efficacy: 0.2917 and 0.3288
  inhibition at 2 µM: 32.3%
A549 cells; 4uM
  Inhibitory efficacy: 0.4966 and 0.48
  inhibition at 4 µM: 54.2%
A549 cells; 8uM
  Inhibitory efficacy: 0.5015 and 0.5395
  inhibition at 8 µM: 54.2%
A549 cells; 16uM
  Inhibitory efficacy: 0.6478 and 0.6577
  inhibition at 16 µM: 64%
A549 cells
  IC50: 5.75 ± 0.48 µM
H460 cells; [17]
  Inhibitory efficacy: 0.2156 and 0.191
H460 cells; [1]
  Inhibitory efficacy: 0.4491 and 0.447
H460 cells; [2]
  Inhibitory efficacy: 0.6066 and 0.6034
H460 cells; Homo sapiens
  IC50: 10.9 ± 0.39 µM
H460 cells; [18]
  inhibition at 4 µM: 21.3%
H460 cells; [19]
  inhibition at 8 µM: 49.5%
H460 cells; [20]
  inhibition at 16 µM: 57.3%
PC-9 cells; Homo sapiens
  IC50: 7.71 ± 1.15 µM
PC-9 cells; Homo sapiens, PC-9, read-out: Inhibitory efficacy, PC-9, 4uM, single repeats (Repeat 1-3), given as fraction
  inhibition at 4 µM: 49.1%
PC-9 cells; Homo sapiens, PC-9, read-out: Inhibitory efficacy, PC-9, 8uM, single repeats (Repeat 1-3), given as fraction
  inhibition at 8 µM: 56.9%
PC-9 cells; Homo sapiens, PC-9, read-out: Inhibitory efficacy, PC-9, 16uM, single repeats (Repeat 1-3), given as fraction
  inhibition at 16 µM: 60.8%
PC-9 cells; PC-9, 4uM, 4 µM
  Inhibitory efficacy: 0.4427 and 0.4497
PC-9 cells; PC-9, 8uM, 8 µM
  Inhibitory efficacy: 0.7173 and 0.5415
PC-9 cells; PC-9, 16uM, 16 µM
  Inhibitory efficacy: 0.5494 and 0.5275

## COCCOc1cc2ncnc(Nc3cccc(-c4cn(-c5ccc(OC)cc5OC)nn4)c3)c2cc1OCCOC [e17, [6,7-Bis-(2-methoxy-ethoxy)-quinazolin-4-yl]-{3-[1-(2,4-dimethoxy-phenyl)-1H-[1,2,3]triazol-4-yl]-phenyl}-amine]
H1975 cells; 1uM, given as fraction, Repeat 1-3
  Inhibitory efficacy: 0.195 and 0.1523
H1975 cells; [21]
  Inhibitory efficacy: 0.402 and 0.2557
H1975 cells; [17]
  Inhibitory efficacy: 0.3137 and 0.2571
H1975 cells; [1]
  Inhibitory efficacy: 0.5 and 0.471
H1975 cells; [2]
  Inhibitory efficacy: 0.4476 and 0.4006
H1975 cells; Homo sapiens
  IC50: 18.3 ± 4.45 µM
H1975 cells; Homo sapiens, NCI-H1975, read-out: Inhibitory efficacy, H1975 cells, 1uM, given as fraction, Repeat 1-3
  inhibition at 1 µM: 23.1%
H1975 cells; Homo sapiens, NCI-H1975, read-out: Inhibitory efficacy, H1975 cells, 2uM, given as fraction, Repeat 1-3
  inhibition at 2 µM: 33.3%
H1975 cells; Homo sapiens, NCI-H1975, read-out: Inhibitory efficacy, H1975 cells, 4uM, given as fraction, Repeat 1-3
  inhibition at 4 µM: 29%
H1975 cells; [3]
  inhibition at 8 µM: 52.8%
H1975 cells; [4]
  inhibition at 16 µM: 47.1%
other
  melting point: 85 to 88 °C
wild-type EGFR
  IC50: 15.5 µM
wild-type EGFR; concentration 0.03 nM, one value per replicate column
  inhibition at 30 pM: 13.7%
wild-type EGFR; [5]
  Inhibition: 9.36
wild-type EGFR; concentration 0.3 nM, one value per replicate column
  inhibition at 0.0003 µM: 14.2%
wild-type EGFR; [6]
  Inhibition: 12.4795
wild-type EGFR; [7]
  inhibition at 0.003 µM: 14.4%
wild-type EGFR; [8]
  Inhibition: 19.0476
wild-type EGFR; [9]
  inhibition at 0.03 µM: 18.2%
wild-type EGFR; [10]
  Inhibition: 26.7652
wild-type EGFR; [11]
  inhibition at 0.3 µM: 32.9%
wild-type EGFR; [12]
  Inhibition: 32.1839
wild-type EGFR; [13]
  inhibition at 3 µM: 34.7%
wild-type EGFR; [14]
  Inhibition: 34.8112
wild-type EGFR; [15]
  inhibition at 30 µM: 60.1%
wild-type EGFR; [16]
  Inhibition: 58.1281
wild-type EGFR; concentration 0.0001 nM
  A450: 0.831 and 0.824
wild-type EGFR; concentration 0.03 nM
  A450: 0.745 and 0.767
wild-type EGFR; concentration 0.3 nM
  A450: 0.742 and 0.748
wild-type EGFR; concentration 3 nM
  A450: 0.741 and 0.708
wild-type EGFR; concentration 30 nM
  A450: 0.717 and 0.661
wild-type EGFR; concentration 300 nM
  A450: 0.625 and 0.628
wild-type EGFR; concentration 3000 nM
  A450: 0.614 and 0.612
wild-type EGFR; concentration 30000 nM
  A450: 0.455 and 0.47
A549 cells; 1uM
  Inhibitory efficacy: 0.282 and 0.1573
  inhibition at 1 µM: 15.3%
A549 cells; 2uM
  Inhibitory efficacy: 0.4285 and 0.3755
  inhibition at 2 µM: 40.1%
A549 cells; 4uM
  Inhibitory efficacy: 0.5452 and 0.5691
  inhibition at 4 µM: 55.6%
A549 cells; 8uM
  Inhibitory efficacy: 0.5949 and 0.5372
  inhibition at 8 µM: 58.9%
A549 cells; 16uM
  Inhibitory efficacy: 0.5916 and 0.6049
  inhibition at 16 µM: 65%
A549 cells
  IC50: 4.86 ± 0.6 µM
H460 cells; [21]
  Inhibitory efficacy: 0.3561 and 0.3949
H460 cells; [17]
  Inhibitory efficacy: 0.5495 and 0.6263
H460 cells; [1]
  Inhibitory efficacy: 0.7733 and 0.7776
H460 cells; [2]
  Inhibitory efficacy: 0.8649 and 0.8113
H460 cells; Homo sapiens
  IC50: 3.18 ± 0.11 µM
H460 cells; Homo sapiens, NCI-H460, read-out: Inhibitory efficacy, H460 cells, 2uM, given as fraction, Repeat 1-3
  inhibition at 2 µM: 29.5%
H460 cells; [18]
  inhibition at 4 µM: 60.9%
H460 cells; [19]
  inhibition at 8 µM: 77.7%
H460 cells; [20]
  inhibition at 16 µM: 81.3%
PC-9 cells; Homo sapiens
  IC50: > 100 µM

Reference: article PMC8776995 (Frontiers in Chemistry, 2022)
